Assay [1] has as its system NO production. Kind of assay: NO production of LPS-stimulated RAW264.7 cells (Griess' method). The assay is classed as cell-based. The conditions noted are these: Mus musculus, LPS (10 μg/ml), NO in culture medium after 24 hours. An excerpt: (§1) When various cells are stimulated with LPS, NF-κB is activated which results in the expression and induction of proteins represented by […] and TNF-α, and thereby the cells start to produce NO and TNF-α.
The Griess' method utilizing a diazo reaction has been known as a method for indirectly knowing that a cell actually produces NO. In the Griess' method, the Griess' reagent in which naphthylethylenediamine and sulfanilic acid have been mixed is reacted with NO2 ion in the culture medium, and the color development thereof is measured by absorbance at 540 nm. The amount of NO accumulated in the cell culture medium after 24 hours was measured in this method with a result that the production of NO released from LPS (10 μg/ml)-stimulated RAW264.7 cells (ATCC, TIB-71) derived from macrophage is suppressed by the compound obtained in Example 4 (FIG. 4A).
(§2) The inhibitory activity of the compounds shown in the Examples is expressed as an IC50 value.
(Griess reagent forms a coloured azo dye with nitrite.)

For assay [2], the system named is TNF-α production. Kind of assay: TNF-α production of LPS-stimulated RAW264.7 cells (ELISA). The conditions noted are these: Mus musculus, LPS (10 μg/ml) for 4 hours. The assay is classed as cell-based.
Text: as §1, §2
A general note: An ELISA detects its analyte on a solid surface through an enzyme-linked reagent.

SMILES strings stand for the structures.

One may read the IC50 as the concentration that inhibits the measured activity by half. With `COC1=C(OC)C(=O)C(Cc2ccc(CCC(=O)N3CCSCC3)cc2)=C(C)C1=O` [Example 4, N-[3-[4-(5,6-dimethoxy-3-methyl-1,4-benzoquinon-2-ylmethyl)phenyl]propionyl]thiomorpholine], the IC50 in assay [1] and in assay [2] was 21 µM each time.

Consider `COC1=C(OC)C(=O)C(Cc2ccc(CCC(=O)N3CCCCC3)cc2)=C(C)C1=O` [Example 7, N-[3-[4-(5,6-dimethoxy-3-methyl-1,4-benzoquinon-2-ylmethyl)phenyl]propionyl]piperidine], for which the IC50 in assay [1] came out at 15 µM; in assay [2], 22 µM.

In the case of `COC1=C(OC)C(=O)C(Cc2ccc(CCC(=O)NC(C)C)cc2)=C(C)C1=O` [Example 9, N-[3-[4-(5,6-dimethoxy-3-methyl-1,4-benzoquinon-2-ylmethyl)phenyl]propionyl]isopropylamine], the values for the IC50 in assay [1] and in assay [2] were 10 µM and 16 µM, respectively.

`COC1=C(OC)C(=O)C(Cc2cccc(CCC(=O)NC(C)C)c2)=C(C)C1=O` [Example 35, N-[3-[3-(5,6-dimethoxy-3-methyl-1,4-benzoquinon-2-ylmethyl)phenyl]propioyl]isopropylamine]: the IC50 in assay [1] and in assay [2] was 19 µM in each case.

On to `COC1=C(OC)C(=O)C(Cc2ccc(CC(=O)N3CCOCC3)cc2)=C(C)C1=O` [Example 53, N-[4-(5,6-dimethoxy-3-methyl-1,4-benzoquinon-2-ylmethyl)phenylacetyl]morpholine], for which the IC50 in assay [1] and in assay [2] was 19 µM throughout.

Turning to `COC1=C(OC)C(=O)C(Cc2ccc(CCC(=O)N3CCC(C)CC3)cc2)=C(C)C1=O` [Example 81], the IC50 in assay [1] and in assay [2] was 13 µM throughout.

On to `COC1=C(OC)C(=O)C(Cc2ccc(CCC(=O)N3CCCCC3C)cc2)=C(C)C1=O` (stereo not shown) [Example 83], for which the IC50 in assay [1] was 6 µM; in assay [2] it was 9 µM.

Take `COC1=C(OC)C(=O)C(Cc2ccc(CCC(=O)N3CCCC(C)C3)cc2)=C(C)C1=O` (stereo not shown) [Example 85]: the values for the IC50 in assay [1] and in assay [2] were 21 µM and 26 µM, respectively.

For `COC1=C(OC)C(=O)C(Cc2ccc(CCC(=O)Nc3ccc(OC)cc3)cc2)=C(C)C1=O` [Example 94], the IC50 in assay [1] came out at 9 µM; in assay [2], 11 µM.

Turning to `COC1=C(OC)C(=O)C(Cc2ccc(CCC(=O)Nc3ccc(OC)c(OC)c3)cc2)=C(C)C1=O` [Example 103], the IC50 in assay [1] and in assay [2] was 31 µM throughout.

With `COC1=C(OC)C(=O)C(Cc2ccc(CCC(=O)N3CCC[C@H]3C(N)=O)cc2)=C(C)C1=O` [Example 106], the IC50 in assay [1] worked out at 17 µM; in assay [2] it was 25 µM.

Take `COC1=C(OC)C(=O)C(Cc2ccc(CCC(=O)N[C@@H](C)c3ccccc3)cc2)=C(C)C1=O` [Example 120]: the IC50 came out at 7 µM in assay [1] and 11 µM in assay [2].

`COC1=C(OC)C(=O)C(Cc2ccc(CCC(=O)N3CC(C)CC(C)C3)cc2)=C(C)C1=O` (stereo not shown) [Example 137]: the IC50 in assay [1] and in assay [2] was 20 µM each time.

For the molecule `COC1=C(OC)C(=O)C(Cc2ccc(CCC(=O)N3CCC(C(C)=O)(c4ccccc4)CC3)cc2)=C(C)C1=O` [Example 168], the IC50 in assay [1] and in assay [2] was 17 µM each time.

These data come from patent publication US6943196B1, “NF-κB inhibitor comprising phenylmethyl benzoquinone as the active ingredient” (Daiichi Suntory Pharma Co., Ltd., priority 1998, dated 2005).
